“Also recorded” adds a separate entry of the source.
Key:
[1] = test system: AZD6244-insensitive cells; test: Immunoblot of phospho-MEK and phospho-Erk; format: cell-based; details: AZD6244-insensitive (resistant) cells
Text: (§1) Equal quantities of lysates were isolated from indicated cell lines and then resolved by SDS-PAGE and immunoblotted with one of the following primary antibodies: mouse anti-MEK1/2, rabbit anti-p-PAK1, rabbit anti-PAK1, rabbit anti-ERK1/2, rabbit anti-phospho(Ser 217/221)-MEK1/2, rabbit anti-phospho(Thr 202/Tyr 204)-ERK1/2, rabbit anti-phospho (Ser 338)-c-RAF, rabbit anti-RAF, rabbit anti-phospho (Ser 112)-BAD and rabbit anti-BAD (Cell Signaling Technology), mouse anti-β-actin (Sigma), followed by detection with one of the following horseradish peroxidase-conjugated secondary antibodies: goat anti-rabbit IgG, goat anti-mouse IgG (Invitrogen), mouse anti-rabbit light-chain-specific IgG (Jackson ImmunoResearch Laboratories) using enhanced chemiluminescence (ECL; GE Healthcare) or SuperSignal West Femto Chemiluminescent substrate (Pierce) detection reagents.

AZD6244-sensitive cells = test: Immunoblot of phospho-MEK and phospho-Erk; format: cell-based; details: 1-2 μM AZD6244
Text: as §1

MDA-MB-231 cells = test: Cell survival; format: cell-based
Procedure: (§2) The MTT assay was used to evaluate cell survival in the absence and presence of different compounds. The thiazolyl blue tetrazolium bromide (MTT) was dissolved in phosphate buffered saline (PBS) at a concentration of 5 mg/ml, filtered, and stored at 4° C. About 10,000 cells were seeded into a 96-well plate and cultured in growth medium containing serum. After 24 hours, cells were treated with the indicated concentrations of DPM-1001 or DPM-1003 (0-100 uM) for 2 hrs. Following which 20 μl MTT was added into each well. An ELISA plate reader (Biotek, Winooski, Vermont, USA) was used to measure the optical density at 490 nm.
MDA-MB-231 cells (1×10^5) were seeded in 6 cm plates in growth medium. The cells were untreated or treated with DPM-1001 (0.5, 1, 2 and 5 μM), DPM-1003 (0.5, 1, 2 and 5 μM) or TTM (25, 50, 100 μM) for 1 h. Following which, media was gently aspirated and cells were washed with PBS. To each plate 0.5 ml of crystal violet (0.5%) was added and incubated in dark for 10 minutes at room temperature. The staining solution was removed and plates were washed with PBS (three times). The cells stained with the dye were imaged.

MCF-7 = test: Cell survival; format: cell-based
Procedure: as §2

MDA-MB-468 cells = test: Cell survival; format: cell-based
Procedure: as §2

SUM159 = test: Cell survival; format: cell-based
Procedure: as §2

HCC70 cells = test: Cell survival; format: cell-based
Procedure: as §2

SUM149 cells = test: Cell survival; format: cell-based
Procedure: as §2

[2] = ESI-MS analysis of complex formation with a series of other metal ions; format: binding; details: panel of metals
Procedure: (§3) Eight equivalents of M(NO3)2·xH2O or MSO4·xH2O were reacted with 1 eq. of DPM-1001, DPM-1003 or analog 2 (1 mM in H2O). The reaction solutions were stirred at RT, 40° C. and 80° C. for 2 h. Each sample was diluted 5-fold in 50% methanol, 0.1% formic acid and loaded into a 500 μL syringe. A Thermo Vantage triple quadrupole mass spectrometer (Thermo Scientific), equipped with an HESI spray source was coupled to an Accela HPLC system (Thermo Scientific). Mobile phase A consisted of 0.1% formic acid and mobile phase B consisted of 0.1% formic acid in methanol. Isocratic flow was set to 50% B at 200 μL/min. 200 μl samples were injected into the LC flow line via syringe pump at 10 μL/min and electrosprayed into the Vantage triple quadrupole mass spectrometer. A spray voltage of 4.3 kV was used along with a capillary temperature of 350° C. Each full MS scan was 0.5 s and data were collected with a scan range of 200 m/z to 900 m/z over 1 min.

[3] = ESI-MS analysis of complex formation with copper salts; format: binding; details: for Percentage (binding percentage): DPM-1013:Cu = 1:8
Procedure: Eight equivalents of M(NO3)2·xH2O or MSO4·xH2O (M=Cu, Zn) were reacted with 1 eq. of DPM-1001 (1 mM in H2O). The reaction solutions were stirred at RT, 40° C. and 80° C. for 2 h. Mass spectra were recorded on a Bruker Esquire 6000 HCT quadrupole ion trap instrument (Bruker Daltonik GmbH, Leipzig, Germany), equipped with an electrospray ionization (ESI) source. Generation of the molecular formula of the DPM-1001/Cu(II) species and the comparison between the theoretical (simulated) and the measured isotopic patterns was performed using the DataAnalysis 4.0 software (Bruker).
as §3
Binding of compounds of Formula I other than DPM-1001 was also confirmed. In an ESI-MS test, compound DPM-1013 as hydrochloride salt was dissolved in distilled water at a concentration of 2 mM freshly before testing. It was then mixed with an equal volume copper sulfate (16 mM) or copper chloride solution (16 mM) for 2 h, rendering a concentration of DPM-1013 at 1 mM and the copper salt 8 mM. The mixture was then further diluted 100-fold before injection into an ESI-MS, making a final concentration of DPM-1013 of 10 μM and Cu 80 μM in the test.
Binding percentage=peak intensity of all DPM-1013-Cu complex/(peak intensity of all DPM-1013-Cu complex+peak intensity of free DPM-1013).

PTP1B1-321 = molecular target: T1, PTP1B1-321 (Homo sapiens, UniProt P18031); test: PTP1B phosphatase activity assay, short form; format: biochemical; details: enzyme-inhibitor complex diluted, activity recovery monitored
T1 construct: C-terminally truncated PTP1B (1-321); made in house; host or cells: Escherichia coli BL21 (DE3)-RIL
T1 sequence (P18031 1-321): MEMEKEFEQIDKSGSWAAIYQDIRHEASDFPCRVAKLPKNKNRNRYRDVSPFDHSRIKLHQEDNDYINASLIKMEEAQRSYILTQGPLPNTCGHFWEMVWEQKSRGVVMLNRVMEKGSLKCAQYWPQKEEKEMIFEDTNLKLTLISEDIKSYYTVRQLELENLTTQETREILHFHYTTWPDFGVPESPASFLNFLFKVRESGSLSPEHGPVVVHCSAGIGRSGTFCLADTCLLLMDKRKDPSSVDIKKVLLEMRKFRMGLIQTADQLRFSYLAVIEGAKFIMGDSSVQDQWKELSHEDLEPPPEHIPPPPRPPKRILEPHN
Procedure: (§4) All common reagents were obtained from Thermo Fisher Scientific (Waltham, MA) or Sigma-Aldrich (St. Louis, MO). Difluoro-4-methylumbelliferyl phosphate (DiFMUP) was obtained from Invitrogen (cat #D22065). Solid black 384-well plates (cat #3573) for phosphatase assays were from Corning Incorporated (Corning, NY).
(§5) Wild-type PTP1B containing a His-tag was expressed in Escherichia coli BL21 (DE3)-RIL using LB. Cells were resuspended in lysis buffer (50 mM Hepes pH 7.2, 150 mM NaCl, 10 mM imidazole, 2 mM TCEP) with cOmplete EDTA-free Protease Inhibitor Cocktail (Roche), and then lysed using a sonicator at 4° C. Lysates were clarified by centrifugation. Initial protein purification was by gravity flow, nickel column chromatography. Protein was used immediately or stored at −80° C. in 50 mM HEPES pH 7.4, 100 mM NaCl, 2 mM dithiothreitol and 25% glycerol.

PTP1B1-405 = molecular target: T2, PTP1B1-405 (Homo sapiens, UniProt P18031); test: PTP1B phosphatase activity assay, DiFMUP substrate, long form; format: biochemical
T2 construct: PTP1B1-405 (the long form of PTP1B which contains the extended C-terminal segment); made in house; host or cells: Escherichia coli BL21 (DE3)-RIL
T2 sequence (P18031 1-405): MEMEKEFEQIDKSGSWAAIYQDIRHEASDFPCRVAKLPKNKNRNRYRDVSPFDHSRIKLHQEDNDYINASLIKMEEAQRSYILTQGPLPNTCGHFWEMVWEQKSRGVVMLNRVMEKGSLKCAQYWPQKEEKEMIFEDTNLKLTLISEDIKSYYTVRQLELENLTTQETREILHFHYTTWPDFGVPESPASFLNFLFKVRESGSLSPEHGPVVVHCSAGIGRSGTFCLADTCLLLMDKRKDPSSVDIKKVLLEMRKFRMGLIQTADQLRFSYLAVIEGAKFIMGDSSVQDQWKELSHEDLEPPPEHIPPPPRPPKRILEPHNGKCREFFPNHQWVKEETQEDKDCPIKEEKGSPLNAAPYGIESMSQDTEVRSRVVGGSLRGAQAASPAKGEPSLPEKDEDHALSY
Procedure: as §4, §5

PTP1B-L192A/S372P = PTP1B-L192A/S372P (Homo sapiens, UniProt P18031, L192A/S372P); test: Phosphatase assay with MSI-1436-resistant mutant; format: biochemical
Text: as §4

TX mice = test: Tissue and fecal copper levels (ICP-MS, rhodanine staining); format: in vivo, mouse
Procedure: C3He-Atp7b^tx-j were obtained from the Jackson laboratory. All animal experiments were performed according to protocols approved by the Institutional Animal Use and Care Committee of Cold Spring Harbor laboratory. Mice were injected intraperitoneally (i.p.) with vehicle, or administered DPM-1001 intraperitoneally or orally at 5 mg/kg once every third day, for over a year. At the end of the study animals were euthanized and tissue samples were removed for biochemical studies.
Tissue samples from wild-type or TX mice treated with saline, DPM-1001 or tetrathiomolybdate was washed three times with PBS containing 1 mM EDTA (to remove nonspecifically bound copper). Then, 215 μl of concentrated nitric acid (BDH Aristar Ultra) was added to each sample and incubated overnight. Samples were boiled at 95° C. for 1 h. and approximately 150 μl of each sample was further diluted in 2 ml 2% nitric acid (made freshly from concentrated nitric acid and Milli-Q water) Samples were analyzed on a Thermo Fisher iCAP Qc ICP mass spectrometer in kinetic energy discrimination (KED) mode against a calibration curve of known copper and phosphorus concentrations, with Ga (20 μg/l, Inorganic Ventures) as an internal standard, Each experiment was carried out twice and each condition was repeated in at least triplicate.
Liver tissues from wild-type and TX mice from untreated and DPM-1001-treated mice were sectioned and stained with H&E or rhodanine. Whole-slide, digitized images of H&E-stained tissue were captured using the Aperio ScanScope XT automated scanning system (Vista, CA). Image J software was used to quantitate rhodanine staining.

Chain of PTP1B-L192A/S372P (P18031 whole entry L192A/S372P): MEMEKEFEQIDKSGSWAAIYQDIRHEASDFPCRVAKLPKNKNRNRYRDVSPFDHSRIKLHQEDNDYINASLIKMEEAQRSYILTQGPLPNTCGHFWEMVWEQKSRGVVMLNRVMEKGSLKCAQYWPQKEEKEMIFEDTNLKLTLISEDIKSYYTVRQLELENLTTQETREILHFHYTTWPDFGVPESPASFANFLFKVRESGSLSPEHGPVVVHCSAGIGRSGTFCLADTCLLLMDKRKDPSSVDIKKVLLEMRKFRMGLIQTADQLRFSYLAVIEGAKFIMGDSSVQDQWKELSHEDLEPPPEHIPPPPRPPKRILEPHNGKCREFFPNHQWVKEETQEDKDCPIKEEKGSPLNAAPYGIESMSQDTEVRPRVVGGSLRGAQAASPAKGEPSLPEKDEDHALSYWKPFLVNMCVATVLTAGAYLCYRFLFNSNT

## Cn1cnc2c(F)c(Nc3ccc(Br)cc3Cl)c(C(=O)NOCCO)cc21 [AZD6244, 6-(4-bromo-2-chloroanilino)-7-fluoro-N-(2-hydroxyethoxy)-3-methylbenzimidazole-5-carboxamide]
[1]
  phospho-MEK and phospho-Erk: without effect
AZD6244-sensitive cells
  phospho-MEK and phospho-Erk: reduced phospho-MEK and phospho-Erk
MDA-MB-231 cells
  survival of MDA-MB-231 cells: inhibited cell survival
MCF-7
  survival of MCF-7 cells: inhibited cell survival
MDA-MB-468 cells
  survival of MDA-MB-468 cells: without effect on survival
SUM159
  survival of SUM159 cells: inhibited cell survival
HCC70 cells
  survival of HCC70 cells: without effect on survival
SUM149 cells
  survival of SUM149 cells: without effect on survival

## c1ccc(CNCCCCNCc2ccccn2)nc1 [Analog 2, N^1,N^4-bis(pyridin-2-ylmethyl)butane-1,4-diamine]
[2]
  complex formation with other metals: bound to all the metals tested
[3]
  complex formation with copper: Cu(II)-bound form

## COC(=O)CC[C@@H](C)[C@H]1CC[C@H]2[C@@H]3[C@H](O)C[C@@H]4C[C@@H](NCCCCNCc5ccccn5)CC[C@]4(C)[C@H]3CC[C@]12C [DPM-1013]
[3]
  complex formation with copper: formed complexes with free Cu, CuSO4; also recorded: formed complexes with free Cu, CuCl2
[3]; CuCl2
  Percentage (binding percentage): 74.29%
[3]; CuSO4
  Percentage (binding percentage): 82.23%

## CC(C)[C@@H](CC[C@@H](C)[C@H]1CC[C@H]2[C@@H]3[C@H](O)C[C@H]4C[C@@H](NCCCNCCCCNCCCN)CC[C@]4(C)[C@H]3CC[C@]12C)OS(=O)(=O)O [MSI-1436, 3-N-1(spermine)-7,24-dihydroxy-5-cholestane 24-sulfate, reference compound]
PTP1B1-321
  reversibility of inhibition of PTP1B1-321: reversible inhibitor
[3]
  complex formation with copper: does not form a complex with copper
PTP1B1-405; enzyme-inhibitor complex diluted, activity recovery monitored
  reversibility of inhibition of PTP1B1-405: reversible inhibitor
PTP1B1-405; sample diluted 100-fold
  time until PTP1B activity recovers: ≤ 60 min
PTP1B-L192A/S372P
  sensitivity of PTP1B-L192A/S372P to inhibitor: insensitive

## [SH-].[SH-].[S]=[Mo]=[S] [tetrathiomolybdate, reference compound]
TX mice; TX mice
  copper levels in feces: only a small increase
TX mice; TX mice, ICP-MS
  copper levels in liver and brain: prevented accumulation of copper in liver and brain
TX mice; wild-type and TX mice, ICP-MS
  copper levels in kidney: caused accumulation of copper in the kidney; also recorded: dramatically elevated copper levels in the kidney
